{
  "source": "paper PMC9440176",
  "about": "“Novel benzylidene benzofuranone analogues as potential anticancer agents: design, synthesis and in vitro evaluation based on CDK2 inhibition assays” (3 Biotech, 2022)",
  "key": {"[1]": {"test_system": "HCT 116", "experiment": "MTT cytotoxicity assay on HCT 116", "assay_type": "cell-based, Human", "conditions": "24 h, read-out: Inhibition of cell proliferation, IC50, HCT 116", "protocol": "The monolayer cell culture was trypsinized and the cell count was adjusted to 5.0 × 10^5 cells/ml using respective media containing 10% FBS. To each well of the 96-well microtiter plate, 100 µL of the diluted cell suspension (50,000cells/well) was added. After 24 h, when a partial monolayer was formed, the supernatant was flicked off, the monolayer was then washed once again with the medium and 100 µL of different test concentrations of test drugs were added on to the partial monolayer in microtiter plates. The plates were then incubated at 37 °C for 24 h in 5% CO2 atmosphere. After incubation, the test solutions in the wells were discarded and 100 µL of MTT (5 mg/10 ml of MTT in PBS) was added to each well. The plates were then incubated for 4 h at 37 °C in 5% CO2 atmosphere. The supernatant was then removed and 100 µL of DMSO was added and the plates were gently shaken to solubilize the formed formazan. The absorbance was measured using a microtiter plate reader at a wavelength of 590 nm. The percentage growth inhibition was thus calculated using the following formula and the concentration of the test drug required to inhibit the cell growth by 50% (IC50) values is generated from the dose–response curves for each one of the cell lines (Meerloo et al. [2011]).\nThe test compounds were screened for their in vitro cytotoxicity by MTT assay against two cancer cell lines, namely MCF-7, HCT-116 and normal epithelial kidney cells (Vero). Doxorubicin was used as a reference standard."}, "[2]": {"test_system": "HCT 116 cells", "experiment": "Apoptotic DNA fragmentation study", "assay_type": "cell-based, Human", "protocol": "Cells were seeded at a concentration of 1 × 10^6 per 35 mm dish and incubated at 37 °C/5% CO2 for 24 h. The confluent cells grown after 24 h of incubation were treated with sample concentrations at 10 μg/ml, 20 μg/ml and control (without sample). After the treatment, cells were trypsinized and both the adherent as well as floating cells were collected by centrifugation at 2000 rpm for 5 min. The cell pellet was later suspended in 0.5 ml lysis buffer (pH 7.8) [Tris–HCl 10 mM, pH 8; EDTA 20 mM, pH 8.0; TritonX-100 0.2% and 4 M NaCl], vortexed vigorously and incubated at 50 °C for 5 min. To the lysate, 0.5 ml of phenol: chloroform: isoamylalcohol was added and mixed for about 2–3 min. Further, it was centrifuged at 10,000 rpm for 15 min at 4 °C.The upper aqueous layer was taken in another tube to which, twice the volume of cold 100% ethanol was added along with 3 M sodium acetate (Final concentration of sodium acetate 0.3 M). It was incubated for 5–10 min at room temperature. Further, centrifuged again at 10,000 rpm for 20 min. After removing the supernatant, the DNA pellet was washed in 70% ethanol and centrifuged at 5000 rpm for the next 10 min. The supernatant was removed, the DNA pellet was air dried and was finally dissolved in TE buffer (Tris–HCl 10 mM, pH 7.4, EDTA 1 mM, pH 8.0) and separated by 2% agarose gel electrophoresis at 100 V for 50 min."}, "[3]": {"test_system": "HCT116 cells", "experiment": "Comet assay (DNA damage)", "assay_type": "cell-based, Human", "conditions": "24 h, HCT-116", "protocol": "To assess the genotoxicity effect of newly synthesized aurones, comet assay was performed on HCT -116 cell lines.\nThe agarose-coated glass slides were prepared according to the standard procedure (Tice et al. [2000]).\nCompound selected—NISOA4.\nCell line used were- HCT116 cells (Human colorectal cancer cell lines).\nHCT -116 (1 × 10^6) cells were treated with two different concentrations, 12.5, 25 μM of NISOA4 for 24 h.\nThe cells were centrifuged at 2000 rpm at 4 °C for 5 min followed by washing with PBS. Further, it was air dried and pellet was dissolved once again in PBS.\nAfter keeping slides at 4 °C for 2 h, slides were removed from the lysis buffer and were placed side by side on a horizontal gel box near one end, sliding them as close together as possible.\nThe slides were placed on ice for 10 min and submerged in lysis buffer (2.5% NaCl, 100 mM EDTA, 10 mM Tris, 10% DMSO and 1% Troton X-100) at pH 10 at 4 °C for more than 1 h.\nIn the next step, the buffer reservoir was filled with freshly made electrophoresis buffer (pH > 13) until the liquid level was enough to cover the slides. […]\nSlides were stained with 80 µL 1× Ethidium Bromide and left aside for 10 min followed by washing with PBS to remove the excess of stain. The slides were then scored immediately after washing.\nThe visualization of DNA damage was observed based on EtBr-staining technique using a 40× objective on a fluorescent microscope. The assessment of both qualitative as well as quantitative extent of DNA damage in the cells were carried out by measuring the length of DNA migration and the percentage of the migrated DNA using ImageJ software with open comet plug-in. Generally, 50 to 100 randomly selected cells are analysed per sample. Finally, the total tail amount was calculated. The final results are assessed by using the following parameters: (i)amount of migration per cell (ii) the number of cells with increased migration (iii) the extent of migration among damaged cells and (iv) cell viability (Końca et al. [2003])."}, "[4]": {"experiment": "DPPH. free radical scavenging assay", "protocol": "DPPH. assay was performed using 96-well plate by serial dilution method. The dilution of methanolic stock solution of the test compounds and standard anti-oxidants was carried out to obtain concentration in the range of 3.9–1000 µM. Quercetin and ascorbic acid were used as standards. To a 100 μL of this solution, 100 μL of 200 µM DPPH^. in methanolic solution was added. The experiment was done in triplicate and the plate was then incubated for 30 min in the dark and later the absorbance was measured at 517 nm using Elisa reader. The percentage DPPH^. Scavenging was calculated using the formula, (Control Absorbance–Test Absorbance)*100/(Control Absorbance). The anti-oxidant activity of the test compounds was expressed in terms of concentration required for 50 percentage inhibition (IC50) (Collins [2005])."}},
  "data": [
    {"smiles": "COc1ccc(/C=C2\\Oc3c(c(OC)cc(OC)c3C3=CCN(C(C)C)CC3)C2=O)cc1OC", "note": "[NISOA4]", "values": [
      {"measurement": "IC50", "setting": "[1]", "value": 21.2, "unit": "µM"},
      {"measurement": "DNA fragmentation on agarose gel", "setting": "[2]; 12.5 μM", "value": "smearing"},
      {"measurement": "DNA fragmentation on agarose gel", "setting": "[2]; 25 μM", "value": "fragmentation in the form of DNA laddering"},
      {"measurement": "Olive moments (Mean ± SD)", "setting": "[3]; 12.5 µM", "value": 25.38},
      {"measurement": "Olive moments (Mean ± SD)", "setting": "[3]; 12.5 µM, listed as NISOA04", "value": "25.384 ± 24.333"},
      {"measurement": "Olive moments (Mean ± SD)", "setting": "[3]; 25 µM, listed as NISOA04", "value": "73.582 ± 97.498"},
      {"measurement": "IC50", "setting": "[4]", "value": "159 ± 0.45", "unit": "µM"}
    ]}
  ]
}
